{"source": "paper PMC7062757", "about": "(2020)", "key": {"[1]": {"system": "M2 x3 array (5 nt) (Mango II x3, M2x3) (RNA, aptamer) GGCACGUACGAAGGAGAGGAGAGGAAGAGGAGAGUACGUGCUUUUUGGACAUGCCGAAGGAGAGGAGAGGAAGAGGAGAGGCAUGUCCUUUUUGGGUGCAUCGAAGGAGAGGAGAGGAAGAGGAGAGAUGCACCC", "experiment": "fluorescence titration, Hill fit", "conditions": "140 mM KCl, 1 mM MgCl2; 10 mM sodium phosphate, pH 7.2, 22 °C; 40 nM RNA; apparent; per site"}, "[2]": {"system": "Mango II (RNA, aptamer) GGCACGUACGAAGGAGAGGAGAGGAAGAGGAGAGUACGUGC", "experiment": "fluorescence titration, Hill fit", "conditions": "140 mM KCl, 1 mM MgCl2; 10 mM sodium phosphate, pH 7.2, 22 °C; 40 nM RNA; apparent; per site"}}, "data": [{"smiles": "CN1C=CC(=Cc2sc3ccccc3[n+]2CC(=O)NCCOCCOCCOCCNC(=O)CCCC[C@@H]2SC[C@@H]3NC(=O)N[C@@H]32)c2ccccc21", "values": [{"measurement": "Kd,app", "setting": "[1]", "value": "80 ± 6", "unit": "nM"}, {"measurement": "Kd,app", "setting": "[2]", "value": "30 ± 4", "unit": "nM"}]}]}
